# Experimental data from PubChem BioAssay (NCI).
# Where “and” joins values, the source holds several entries; their conditions need not be identical. Identical values can stand only once.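 These data come from cells grown in 96-well plates and exposed to compound for 48 hours at five concentrations. GI50: concentration for 50% inhibition of growth. TGI marks complete inhibition of growth.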
# Columns and labels:
# Assay in all cases: inhibition of tumour cell growth, NCI panel, 48 h
# PC-3 prostate = tested on: PC-3 prostate
# SN12C renal = tested on: SN12C renal
# OVCAR-8 ovarian = tested on: OVCAR-8 ovarian
# TK-10 renal = tested on: TK-10 renal
# SW-620 colon = tested on: SW-620 colon
# UACC-62 melanoma = tested on: UACC-62 melanoma
# SNB-75 CNS = tested on: SNB-75 CNS
# K-562 leukemia = tested on: K-562 leukemia
# UO-31 renal = tested on: UO-31 renal
# MCF7 breast = tested on: MCF7 breast
SMILES,GI50 (PC-3 prostate),TGI (PC-3 prostate),GI50 (SN12C renal),TGI (SN12C renal),GI50 (OVCAR-8 ovarian),TGI (OVCAR-8 ovarian),GI50 (TK-10 renal),TGI (TK-10 renal),GI50 (SW-620 colon),TGI (SW-620 colon),GI50 (UACC-62 melanoma),TGI (UACC-62 melanoma),GI50 (SNB-75 CNS),TGI (SNB-75 CNS),GI50 (K-562 leukemia),TGI (K-562 leukemia),GI50 (UO-31 renal),TGI (UO-31 renal),GI50 (MCF7 breast),TGI (MCF7 breast)
CCSc1nc(N)c2cnn(C)c2n1,38.9 µM,> 100 µM,48.9 µM,> 100 µM,49.4 µM,> 100 µM,34.1 µM,> 100 µM,34.2 µM,> 100 µM,29.5 µM,69.6 µM,68.9 µM,> 100 µM,54.5 µM,> 100 µM,38.3 µM,> 100 µM,28 µM,> 100 µM
CC(C)C[C@H](NC(=O)[C@@H](O)[C@H](N)Cc1ccccc1)C(=O)O,,> 100 µM,,> 100 µM,,> 100 µM,,> 100 µM,,> 100 µM,,> 100 µM,,> 100 µM,,> 100 µM,> 100 µM,> 100 µM,,> 100 µM
CN1CCN(C(=S)SCN2C(=O)c3ccccc3S2(=O)=O)CC1,10.8 µM,39.2 µM,52.5 µM,> 100 µM,46.3 µM,> 100 µM,43.4 µM,> 100 µM,9.31 µM,74.9 µM,18.8 µM,54.1 µM,24.5 µM,92.1 µM,14.5 µM,94.6 µM,94.6 µM,> 100 µM,8.29 µM,> 100 µM
COC1C(CO)OC(n2c3ccccc3c3c4c(c5c6ccccc6[nH]c5c32)C(=O)NC4=O)C(O)C1OC(=O)C(N)CCCCN (centres undefined),1.43 µM,> 42.3 µM,0.405 µM,2.36 µM,0.49 µM,> 50 µM,1.81 µM,14.6 µM,0.198 µM,> 16.9 µM,0.283 µM,1.3 µM,3.62 µM,> 22.8 µM,0.414 µM,> 50 µM,0.997 µM,5.5 µM,1.13 µM,> 50 µM
Nc1ccc2c(c1)CN1C(=O)c3ccccc3C1=N2,,> 125 µM,44.8 µM,> 125 µM,,115 µM,16.8 µM,> 125 µM,,> 125 µM,52.9 µM,> 116 µM,,69.5 µM,52.4 µM,> 125 µM,44 µM,> 125 µM,,> 78.9 µM
CC1(C)CC2(C)OC2C2(C1)N=NC(=Nc1ccccc1)O2 (centres undefined),11.5 µM,28.9 µM,2.48 µM,8.33 µM,2.9 µM,> 100 µM,3.44 µM,8.31 µM,2.35 µM,9.28 µM,3.76 µM,16 µM,16.4 µM,30.4 µM,2.3 µM,12.5 µM,1.67 µM,4.02 µM,1.81 µM,13.2 µM
CC(=O)N[C@@H]1CCC[C@H](C(=O)Nc2cc(-c3cnn4c3CC(C)(C)C4)c(Cl)cn2)C1,< 0.01 µM,> 100 µM,0.0103 µM,> 100 µM,< 0.012 µM,> 100 µM,< 0.01 µM,> 100 µM,< 0.01 µM,> 100 µM,< 0.01 µM,0.0549 µM,< 0.01 µM,0.029 µM,0.0212 µM,> 100 µM,0.0241 µM,,< 0.01 µM,40.6 µM
CN(C)c1ccc(Sc2ccc3nc(N)nc(N)c3c2)cc1,0.63 µM,15.6 µM,0.761 µM,14.2 µM,0.589 µM,9.88 µM,4.11 µM,15.5 µM,0.318 µM,2.1 µM,0.519 µM,5.78 µM,2.14 µM,16.3 µM,0.142 µM,4.55 µM,1.12 µM,13.6 µM,1.14 µM,13.4 µM
CCc1nc(N)nc(N)c1-c1ccc([N+](=O)[O-])c(Cl)c1,,> 100 µM,,> 100 µM,,> 100 µM,,> 100 µM,,> 100 µM,,> 100 µM,,> 92.5 µM,,> 100 µM,,> 100 µM,,> 100 µM
CCC1(N2C(=O)c3c(F)c(F)c(F)c(F)c3C2=O)C(=O)NC(=O)N(c2ccccc2)C1=O (centres undefined),2.28 µM,16 µM,1.57 µM,3.54 µM,3.47 µM,11.4 µM,2.4 µM,5.57 µM,1.76 µM,3.96 µM,1.41 µM,3.1 µM,1.9 µM,5.09 µM,2.31 µM,5.23 µM,17.1 µM,63.7 µM,2.21 µM,17 µM
COc1cc(OC)cc(N2CCN(C(=O)Nc3nc4cc(F)ccc4nc3OC)CC2)c1,0.116 µM and 0.0312 µM and 0.033 µM,40.7 µM and 22.9 µM,0.067 µM and 0.0615 µM and 0.0576 µM,51.1 µM and 24.5 µM,0.0437 µM and 0.0499 µM and 0.056 µM,> 100 µM,16.6 µM and 10.3 µM,71.6 µM and 63.8 µM,0.0283 µM and 0.0372 µM and 0.0395 µM,> 100 µM,< 0.01 µM and 0.0142 µM,27.2 µM and 21.9 µM,0.0197 µM and 0.0243 µM,56.4 µM and 57.2 µM,0.0184 µM and 0.0375 µM and 0.0304 µM,> 100 µM,0.0681 µM and 0.0692 µM and 0.0336 µM,38.9 µM and 43.3 µM,0.0239 µM and 0.0265 µM and 0.0142 µM,24.7 µM and 22.8 µM
CCCCCCCCCCCCNC(=O)[C@H]1CSC(c2ccc(OC)c(F)c2)N1 (some centres undefined),0.38 µM,1.43 µM,0.841 µM,2.14 µM,1.18 µM,4.13 µM,1.95 µM,3.48 µM,0.87 µM,2.81 µM,1.45 µM,2.83 µM,0.468 µM,1.01 µM,0.215 µM,0.938 µM,1.63 µM,3.01 µM,1.55 µM,3.31 µM
CC(C)(C)NCCC(O)c1cc(C(F)(F)F)nc2c(C(F)(F)F)cccc12 (centres undefined),,20.6 µM,,15.5 µM,,17.8 µM,,24.8 µM,,> 52.6 µM,,25.3 µM,,26.5 µM,,19.9 µM,,1.34 µM,,27.6 µM
O=[N+]([O-])O.[NH-]C1CCCCC1[NH-].[NH-]C1CCCCC1[NH-].[NH-]C1CCCCC1[NH-].[OH-].[OH-].[OH-].[Pt+4].[Pt+4].[Pt+4] (centres undefined),0.756 µM,40.9 µM,0.126 µM,26.7 µM,0.382 µM,> 74.1 µM,2.2 µM,28.9 µM,,> 100 µM,0.3 µM,16.5 µM,1.49 µM,32.6 µM,0.452 µM,> 100 µM,0.373 µM,15.5 µM,0.157 µM,> 45.6 µM
CC(C)n1nc(C#Cc2cccc(NC(=O)c3cccc(C(F)(F)F)c3)c2)c2c(N)ncnc21,2.91 µM,> 100 µM,1.28 µM,8.17 µM,3.15 µM,> 100 µM,1.78 µM,4.45 µM,2.2 µM,> 100 µM,0.19 µM,1.24 µM,1.75 µM,3.89 µM,,> 100 µM,0.601 µM,6.1 µM,7.5 µM,> 100 µM
CN1c2ccccc2C(=O)Nc2cnc(Cl)nc21,,> 100 µM,,> 100 µM,,> 100 µM,,> 100 µM,,> 100 µM,,> 100 µM,,> 100 µM,,> 100 µM,,> 100 µM,,> 100 µM
CC1SC2(CCCCC2)N(NC(=O)c2[nH]c3ccc(F)cc3c2-c2ccccc2)C1=O (centres undefined),41.2 µM,> 100 µM,37.1 µM,> 100 µM,23.1 µM,63.5 µM,35.3 µM,> 100 µM,> 100 µM,> 100 µM,21.2 µM,> 100 µM,27.2 µM,62 µM,35.4 µM,> 100 µM,> 100 µM,> 100 µM,> 100 µM,> 100 µM
COc1cc(C(=O)N/N=C/c2cccc([N+](=O)[O-])c2)cc(OC)c1OC,2.92 µM,> 100 µM,78.9 µM,> 100 µM,23.6 µM,> 100 µM,25.2 µM,> 100 µM,3.15 µM,> 100 µM,6.31 µM,> 100 µM,6.92 µM,56.1 µM,0.872 µM,> 100 µM,5.2 µM,> 100 µM,4.49 µM,> 100 µM
CC[C@@]1(OC(=O)CN(C)C)C(=O)OCc2c1cc1n(c2=O)Cc2cc3ccccc3nc2-1,0.476 µM,,,4.03 µM and 0.892 µM,0.0521 µM,,0.481 µM,7.85 µM,0.16 µM,,< 0.012 µM,0.116 µM and 0.132 µM,0.0475 µM,5.8 µM and 4.3 µM,0.108 µM,7.67 µM and > 41.5 µM,0.0181 µM,0.231 µM and 0.107 µM,0.0235 µM,> 100 µM
C=C(CC1(CC(=C)c2ccc(C(=O)O)cc2)C(=O)N(C)C(=O)N(C)C1=O)c1ccc(C(=O)O)cc1,63.2 µM,> 100 µM,59.2 µM,> 100 µM,62.8 µM,> 100 µM,16 µM,> 100 µM,> 100 µM,> 100 µM,42.7 µM,> 100 µM,25.2 µM,> 100 µM,35.9 µM,> 100 µM,57.2 µM,> 100 µM,73.9 µM,> 100 µM
CCN(CC)CCOc1ccc(C2=C(c3ccccc3)CCc3cc(OC)ccc32)cc1,7.66 µM,> 51.1 µM,5.48 µM,20 µM,3.15 µM,10.5 µM,2.74 µM,9.47 µM,2.78 µM,8.09 µM,1.87 µM,3.9 µM,1.4 µM,4.62 µM,2.8 µM,15.5 µM,1.86 µM,4.13 µM,0.547 µM,2.62 µM
C[C@H](NC(=O)CCC(F)(F)F)C(=O)N[C@@H]1C(=O)N(CCO)c2ncccc2-c2ccccc21,> 100 µM,> 100 µM,> 100 µM,> 100 µM,> 100 µM,> 100 µM,> 100 µM,> 100 µM,> 100 µM,> 100 µM,> 100 µM,> 100 µM,> 100 µM,> 100 µM,> 100 µM,> 100 µM,> 100 µM,> 100 µM,> 100 µM,> 100 µM
Cc1ccc(OCCCCCCNCCO)c(C)c1,14 µM,29.7 µM,12.7 µM,26.9 µM,17.8 µM,35.9 µM,16 µM,30 µM,16.3 µM,33 µM,12.1 µM,25.7 µM,6.47 µM,20.1 µM,12.2 µM,31.4 µM,12.1 µM,26.4 µM,13.9 µM,28.7 µM
